Literature values in article PMC12150326 (The Journal of Organic Chemistry, 2025).
“And” between values parts separate entries of the source, which are not always exact repeats. Equal values may be shown once. Read-outs that look alike come from different tables or passages of the source.

Tests used:
Set-up in all cases: method as in NCI-60 database
[1] = system: SK-MEL-5; settings: SK-MEL-5 ref NCI-60 database, cited from earlier work
[2] = system: UO-31; settings: UO-31 ref NCI-60 database, cited from earlier work
[3] = system: NCI-H23; settings: NCI-H23 ref NCI-60 database, cited from earlier work
[4] = system: HT29; settings: HT29 ref NCI-60 database, cited from earlier work
[5] = system: HOP-92; settings: HOP-92 ref NCI-60 database, cited from earlier work
[6] = system: DLD-1; settings: DLD-1 ref NCI-60 database, cited from earlier work
[7] = system: HOP-18; settings: HOP-18 ref NCI-60 database; cited from earlier work
[8] = system: SK-MEL-2; settings: SK-MEL-2 ref NCI-60 database, cited from earlier work
[9] = system: HOP-62; settings: HOP-62 ref NCI-60 database, cited from earlier work
[10] = system: CCRF-CEM; settings: CCRF-CEM ref NCI-60 database, cited from earlier work
[11] = system: NCI-H226; settings: NCI-H226 ref NCI-60 database, cited from earlier work
[12] = system: COLO 205; settings: COLO 205 ref NCI-60 database, cited from earlier work
[13] = system: XF 498; settings: XF 498 ref NCI-60 database, cited from earlier work
[14] = system: MDA-N; settings: MDA-N ref NCI-60 database, cited from earlier work
[15] = system: NCI 60 cell lines; settings: cited from earlier work; for _MID Log10LC50: mean graph midpoint ref NCI-60 database
[16] = system: ACHN; settings: ACHN ref NCI-60 database, cited from earlier work
[17] = system: A549/ATCC; settings: A549/ATCC ref NCI-60 database, cited from earlier work
[18] = system: TK-10; settings: TK-10 ref NCI-60 database, cited from earlier work
[19] = system: SF-295; settings: SF-295 ref NCI-60 database, cited from earlier work
[20] = mean graph ref NCI-60 database, listed as 757/1
[21] = mean graph ref NCI-60 database, listed as 757/9

In the case of `COc1cc2c(c(OC)c1OC)-c1ccc(OC)c(=O)cc1[C@@H](NC(C)=O)CC2` [Colchicine, (−)-Colchicine], the GI50 [1] is listed as less than 10 nM, the Log10GI50 [1] is listed as less than -8 Molar and the Log10GI50 ([1]; listed as 757/1) is listed as -7.61 Molar. The Log10TGI ([1]; listed as 757/9) was -7.58 Molar, the Log10GI50 ([1]; listed as 757/21) was less than -8.00 Molar and the Log10LC50 ([1]; listed as 757/21) was greater than -4.00 Molar. For the same compound, the GI50 [2] was 513 nM, the Log10GI50 [2] was -6.29 Molar and the Log10LC50 [2] was greater than -4.00 Molar. The Log10TGI ([2]; listed as 757/9) was -6.03 Molar, the Log10TGI ([2]; listed as 757/21) was -4.19 Molar and > -4.00 Molar and the GI50 [3] was 30 nM. For the same compound, the Log10GI50 [3] was -7.54 Molar, the Log10LC50 ([3]; listed as 757/9) was -7.14 Molar and the Log10LC50 ([3]; listed as 757/21) was greater than -4.00 Molar. For the same compound, the Log10TGI ([3]; listed as 757/21) was greater than -4.00 Molar, the GI50 [4] was 30 nM and the Log10GI50 [4] was -7.55 Molar. For the same compound, the Log10LC50 [4] was greater than -4.00 Molar, the Log10TGI ([4]; listed as 757/1) was -4.61 Molar and the Log10GI50 ([4]; listed as 757/9) was -7.32 Molar. For the same compound, the Log10TGI ([4]; listed as 757/9) was -6.43 Molar, the Log10LC50 [5] was greater than -4.00 Molar and the Log10GI50 ([5]; listed as 757/1) was -7.73 Molar. For the same compound, the Log10TGI ([5]; listed as 757/1) was greater than -4.00 Molar, the Log10GI50 ([5]; listed as 757/21) was less than -8.00 Molar and the Log10LC50 [6] was greater than -4.00 Molar. For the same compound, the Log10TGI [6] was greater than -4.00 Molar, the Log10GI50 ([6]; listed as 757/1) was -7.35 Molar and the Log10GI50 [7] was greater than -4.00 Molar. For the same compound, the Log10LC50 [7] was greater than -4.00 Molar, the Log10TGI [7] was greater than -4.00 Molar and the GI50 [8] was less than 10 nM. For the same compound, the Log10GI50 [8] was less than -8 Molar, the Log10LC50 [8] was greater than -4.00 Molar and the Log10GI50 ([8]; listed as 757/1) was -7.53 Molar. The Log10TGI ([8]; listed as 757/1) was less than -8.00 Molar, the Log10GI50 ([8]; listed as 757/21) was less than -8.00 Molar and the Log10TGI ([8]; listed as 757/21) was greater than -4.00 Molar. For the same compound, the Log10LC50 [9] was greater than -4.00 Molar, the Log10TGI [9] was greater than -4.00 Molar and the Log10GI50 ([9]; listed as 757/9) was -7.43 Molar. The GI50 [10] was 20 nM, the Log10GI50 [10] was -7.82 Molar and the Log10GI50 ([10]; listed as 757/1) was -7.39 Molar. The Log10LC50 ([10]; listed as 757/9) was less than -8.00 Molar, the Log10TGI ([10]; listed as 757/9) was less than -8.00 Molar and the Log10GI50 ([10]; listed as 757/21) was < -8.00 Molar and -7.93 Molar and -7.82 Molar. The Log10LC50 ([10]; listed as 757/21) was greater than -4.00 Molar, the Log10TGI ([10]; listed as 757/21) was greater than -4.00 Molar and the GI50 [11] was 30 nM. The Log10GI50 [11] was -7.56 Molar, the Log10LC50 [11] was greater than -4.00 Molar and the Log10TGI ([11]; listed as 757/1) was greater than -4.00 Molar. The Log10GI50 ([11]; listed as 757/9) was -7.18 Molar, the Log10TGI ([11]; listed as 757/9) was -7.35 Molar and the GI50 [12] was 10 nM. The Log10GI50 [12] was -7.83 Molar, the Log10GI50 ([12]; listed as 757/1) was -5.74 Molar and the Log10GI50 ([12]; listed as 757/21) was < -8.00 Molar and -7.83 Molar. The Log10LC50 ([12]; listed as 757/21) was -7.24 Molar, the Log10TGI ([12]; listed as 757/21) was -7.89 Molar and the Log10LC50 [13] was greater than -4.00 Molar. The Log10TGI ([13]; listed as 757/1) was -4.41 Molar, the Log10GI50 [14] was less than -8.00 Molar and the Log10LC50 [14] was greater than -4.00 Molar. The Log10TGI ([14]; listed as 757/9) was < -8.00 Molar and -7.91 Molar, the Log10TGI ([14]; listed as 757/21) was -4.25 Molar and the “_MID Log10LC50” value ([15]; listed as 757/1) was -4.07 Molar and -4.08 Molar. For the same compound, the “_MID Log10LC50” value ([15]; listed as 757/21) was -4.0 Molar and -4.12 Molar and -4.01 Molar, the “Delta Log10GI50” value [15, 20] was 0.39 and 0.68 and the “Delta Log10LC50” value [15, 20] was 3.26 and 3.02. For the same compound, the “Delta Log10TGI” value [15, 20] was 3.04 and 2.76, the “Range Log10GI50” value [15, 20] was 3.72 and the “Range Log10LC50” value [15, 20] was 3.33 and 3.1. The “Range Log10TGI” value [15, 20] was 3.41, the “Range Log10GI50” value [15, 21] was 1.41 and the “Range Log10LC50” value [15, 21] was 4.0. For the same compound, the “Range Log10TGI” value ([15]; mean graph ref NCI-60 database, listed as 757/21) was 3.89, the GI50 [16] was 372 nM and the Log10GI50 [16] was -6.43 Molar. The Log10LC50 [16] was greater than -4.00 Molar, the Log10TGI [16] was greater than -4.00 Molar and the Log10GI50 ([16]; listed as 757/21) was -6.40 Molar and -6.43 Molar. For the same compound, the GI50 [17] was 260 nM, the Log10GI50 [17] was -6.58 Molar and the Log10LC50 [17] was greater than -4.00 Molar. For the same compound, the Log10TGI [17] was greater than -4.00 Molar, the Log10GI50 ([17]; listed as 757/9) was -6.57 Molar and the GI50 [18] was greater than 100000 nM. For the same compound, the Log10GI50 [18] was greater than -4 Molar, the Log10LC50 [18] was greater than -4.00 Molar and the Log10TGI [18] was greater than -4.00 Molar. The Log10GI50 ([18]; listed as 757/1) was greater than -4.00 Molar, the Log10GI50 ([18]; listed as 757/9) was -7.50 Molar and the Log10GI50 ([18]; listed as 757/21) was -4.66 Molar. The Log10GI50 ([19]; listed as 757/1) was < -8.00 Molar and -7.70 Molar, the Log10LC50 ([19]; listed as 757/1) was -4.51 Molar and the Log10GI50 ([19]; listed as 757/9) was -7.68 Molar and -7.69 Molar. For the same compound, the Log10TGI ([19]; listed as 757/9) was -7.30 Molar, the Log10GI50 ([19]; listed as 757/21) was -7.88 Molar and -7.77 Molar and the Log10LC50 ([19]; listed as 757/21) was greater than -4.00 Molar. For the same compound, the Log10TGI ([19]; listed as 757/21) was -7.39 Molar and -7.37 Molar.
